From US20150087673A1, “METHODS FOR USING AND BIOMARKERS FOR AMPK-ACTIVATING COMPOUNDS” (RIGEL PHARMACEUTICALS, INC., priority 2013, published 2015) come the findings set out here.

pEC50: −log10 of the molar value.

By pEC50 is commonly meant the EC50 on a negative log10 scale, so that one unit is a factor of ten.

The assay has as its system AMPK. The assay can be described thus: AMPK activation assay (enzyme-linked immunosorbent assay). It counts as cell-based. The method in brief:
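Activation by each compound is measured using a conventional commercial immunoassay kit.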
`O=C(NC1CCN(Cc2cc(F)cc(F)c2)CC1)c1ccc(C(=O)N2CCN(Cc3ccc(F)cc3)CC2)cn1` [Compound 49, N-(1-(3,5-difluorobenzyl)piperidin-4-yl)-5-(4-(4-fluorobenzyl)piperazine-1-carbonyl)picolinamide] showed a negative-log EC50 (pEC50) above 6.30.

`COc1ccc(C(=O)C2CCN(C(=O)c3ccc(C(=O)Nc4ccc(Oc5ccc(C#N)cc5)cn4)cn3)CC2)cc1` [Compound 468, N-(5-(4-cyanophenoxy)pyridin-2-yl)-6-(4-(4-methoxybenzoyl)piperidine-1-carbonyl)nicotinamide] had a pEC50 above 6.30.

In the case of `COc1ccc(C(=O)C2CCN(C(=O)c3ccc(C(=O)NC4CCN(Cc5ccc(S(C)(=O)=O)cc5)CC4)cn3)CC2)cc1` [Compound 215, 6-(4-(4-methoxybenzoyl)piperidine-1-carbonyl)-N-(1-(4-(methylsulfonyl)benzyl)piperidin-4-yl)nicotinamide], the negative logarithm of the EC50 (pEC50) is below 5.00.

On to `COc1ccc(C(=O)C2CCN(C(=O)c3ccc(C(=O)N[C@H]4CC[C@@H](Oc5ccc(C#N)c(F)c5)CC4)nc3)CC2)cc1` [Compound 198, N-((cis)-4-(4-cyano-3-fluorophenoxy)cyclohexyl)-5-(4-(4-methoxybenzoyl)piperidine-1-carbonyl)picolinamide], for which the pEC50 was above 6.30.

`O=C(NC1CCN(Cc2ccc(F)cc2)CC1)c1ccc(C(=O)N2CCC(C(=O)c3ccc(F)cc3)CC2)cn1` [Compound 181, 5-(4-(4-fluorobenzoyl)piperidine-1-carbonyl)-N-(1-(4-fluorobenzyl)piperidin-4-yl)picolinamide] had a pEC50 above 6.30.

Compound `N#Cc1ccc(OC2CCN(C(=O)c3ccc(C(=O)NC4CCNCC4)cn3)CC2)cc1` [Compound 335, 6-(4-(4-cyanophenoxy)piperidine-1-carbonyl)-N-(piperidin-4-yl) nicotinamide] had a negative-log EC50 (pEC50) below 5.00.

In turn, `CS(=O)(=O)c1ccc(C(=O)C2CCN(C(=O)c3ccc(C(=O)NC4CCN(Cc5ccc(N6CCCC6)cc5)CC4)cn3)CC2)cc1` [Compound 229, 6-(4-(4-(methylsulfonyl)benzoyl)piperidine-1-carbonyl)-N-(1-(4-(pyrrolidin-1-yl)benzyl)piperidin-4-yl)nicotinamide] had a pEC50 of 5.30 to 6.00.

`O=C(Nc1ccc(Oc2ccc(F)cc2)nc1)c1ccc(C(=O)N2CCC(C(=O)c3ccc(N4CCCC4)cc3)CC2)nc1` [Compound 382, N-(6-(4-fluorophenoxy)pyridin-3-yl)-6-(4-(4-(pyrrolidin-1-yl)benzoyl)piperidine-1-carbonyl)nicotinamide]: the pEC50 is above 6.30.

In turn, `N#Cc1ccc(CN2CCC(NC(=O)c3ccc(C(=O)N4CCC(C(O)c5ccc(F)cc5)CC4)cn3)CC2)cc1` (stereo not shown) [Compound 142, N-(1-(4-cyanobenzyl)piperidin-4-yl)-5-(4-((4-fluorophenyl)(hydroxy)methyl)piperidine-1-carbonyl)picolinamide] gave a negative logarithm of the EC50 (pEC50) above 6.30.

Take `COc1ccc(C(=O)C2CCN(C(=O)c3ccc(C(=O)NC4CCN(Cc5cccc(OC(F)(F)F)c5)CC4)cn3)CC2)cc1` [Compound 424, 6-(4-(4-methoxybenzoyl)piperidine-1-carbonyl)-N-(1-(3-(trifluoromethoxy)benzyl)piperidin-4-yl)nicotinamide]: the negative-log EC50 (pEC50) is above 6.30.

In the case of `N#Cc1ccc(CN2CCC(C(=O)Nc3ccc(C(=O)N4CCC(C(=O)c5ccc(F)cc5)CC4)cn3)CC2)cc1` [Compound 175, 1-(4-cyanobenzyl)-N-(5-(4-(4-fluorobenzoyl)piperidine-1-carbonyl)pyridin-2-yl)piperidine-4-carboxamide], the pEC50 was above 6.30.

Consider `N#Cc1ccc(Oc2ccc(NC(=O)c3ccc(C(=O)N4CCN(Cc5ccc(F)cc5)CC4)nc3)cn2)cc1` [Compound 476, N-(6-(4-cyanophenoxy)pyridin-3-yl)-6-(4-(4-fluorobenzyl)piperazine-1-carbonyl)nicotinamide], for which the negative logarithm of the EC50 (pEC50) was above 6.30.

As for `N#Cc1ccc(CN2CCC(NC(=O)c3ccc(C(=O)N4CCC(C(=O)c5ccc(-n6cccn6)cc5)CC4)nc3)CC2)cc1` [Compound 393, 6-(4-(4-(1H-pyrazol-1-yl)benzoyl)piperidine-1-carbonyl)-N-(1-(4-cyanobenzyl)piperidin-4-yl)nicotinamide], the negative logarithm of the EC50 (pEC50) is above 6.30.

Take `CS(=O)(=O)c1ccc(OC2CCN(C(=O)c3ccc(C(=O)N[C@@H]4CCN(Cc5ccc(C#N)cc5)C[C@H]4F)nc3)CC2)cc1` (relative stereo) [Compound 254, N-((trans)-1-(4-cyanobenzyl)-3-fluoropiperidin-4-yl)-5-(4-(4-(methylsulfonyl)phenoxy)piperidine-1-carbonyl)picolinamide]: the negative-log EC50 (pEC50) was above 6.30.

`O=C(NC1CCN(c2ccccc2)CC1)c1ccc(C(=O)N2CCN(Cc3ccc(F)cc3)CC2)cn1` [Compound 14, 5-(4-(4-fluorobenzyl)piperazine-1-carbonyl)-N-(1-(phenyl)piperidin-4-yl)picolinamide] showed a negative logarithm of the EC50 (pEC50) of 6.00 to 6.30.

Consider `COc1ccc(C(=O)C2CCN(C(=O)c3ccc(C(=O)N[C@@H]4CCN(Cc5ccc(C#N)cc5)C[C@H]4F)cn3)CC2)cc1` (relative stereo) [Compound 349, N-((trans)-1-(4-cyanobenzyl)-3-fluoropiperidin-4-yl)-6-(4-(4-methoxybenzoyl)piperidine-1-carbonyl)nicotinamide], for which the negative logarithm of the EC50 (pEC50) is above 6.30.

As to `COc1ccc(CN2CCC(NC(=O)c3ccc(C(=O)N4CCC(S(=O)(=O)c5ccc(F)cc5)CC4)nc3)CC2)cc1` [Compound 474, 6-(4-(4-fluorophenylsulfonyl)piperidine-1-carbonyl)-N-(1-(4-methoxybenzyl)piperidin-4-yl)nicotinamide], the negative logarithm of the EC50 (pEC50) is 5.30 to 6.00.

Compound `N#Cc1ccc(CN2CCC(NC(=O)c3ccc(N4CCC(Oc5ccc(C#N)cc5)CC4)nn3)CC2)cc1` [Compound 351, N-(1-(4-cyanobenzyl)piperidin-4-yl)-6-(4-(4-cyanophenoxy)piperidin-1-yl) pyridazine-3-carboxamide] showed a pEC50 above 6.30.

Take `O=C(NC1CCN(Cc2ccc(OC(F)(F)F)cc2)CC1)c1ccc(C(=O)N2CCC(Oc3ccc(S(=O)(=O)C4CC4)cc3)CC2)nc1` [Compound 249, 6-(4-(4-(cyclopropylsulfonyl)phenoxy)piperidine-1-carbonyl)-N-(1-(4-(trifluoromethoxy)benzyl)piperidin-4-yl)nicotinamide]: the pEC50 was above 6.30.

In turn, `COc1ccc(C(=O)C2CCN(C(=O)c3ccc(C(=O)NC4CCN(Cc5ccc(N6CCCC6)cc5)CC4)nc3)CC2)cc1` [Compound 194, 5-(4-(4-methoxybenzoyl)piperidine-1-carbonyl)-N-(1-(4-(pyrrolidin-1-yl)benzyl)piperidin-4-yl)picolinamide] showed a negative-log EC50 (pEC50) above 6.30.

`COc1ccc(C(=O)C2CCN(C(=O)c3ccc(C(=O)NC4CCN(Cc5ccc(NC(C)=O)cc5)CC4)cn3)CC2)cc1` [Compound 401, N-(1-(4-acetamidobenzyl)piperidin-4-yl)-6-(4-(4-methoxybenzoyl)piperidine-1-carbonyl)nicotinamide] showed a negative logarithm of the EC50 (pEC50) of 5.30 to 6.00.

`CSc1ccc(C(=O)C2CCN(C(=O)c3ccc(C(=O)NC4CCN(Cc5ccc(C#N)cc5)CC4)nc3)CC2)cc1` [Compound 372, N-(1-(4-cyanobenzyl)piperidin-4-yl)-5-(4-(4-(methylthio)benzoyl)piperidine-1-carbonyl)picolinamide] had a negative-log EC50 (pEC50) above 6.30.
